The source of these data is ChEMBL document CHEMBL3608206, “Phenolic 4-hydroxy and 3,5-dihydroxy derivatives of 3-phenoxyquinoxalin-2(1H)-one as potent aldose reductase inhibitors with antioxidant activity” (Bioorg Med Chem Lett, 2015).

Each structure is given as a SMILES string.

By inhibition is commonly meant the change of the read-out against control, counted positive when it falls. The term IC50 denotes the concentration at which inhibition is half-maximal.

In data set [1] the test system is Brain. Nature of the data set: Antioxidant activity in rat brain assessed as inhibition of MDA production at 10 uM by TBARS assay relative to control. Type of data set: functional.
Data set [2] concerns Brain. Nature of the data set: Antioxidant activity in rat brain assessed as inhibition of MDA production at 100 uM by TBARS assay relative to control. The data set is classed as functional.
Data set [3] in a line: Antioxidant activity assessed as DPPH radical scavenging activity at 100 uM after 240 mins by spectrophotometric analysis relative to control. Type of data set: physicochemical. The following applies: 4 h.
Data set [4] is described as follows: Antioxidant activity assessed as DPPH radical scavenging activity at 50 uM after 240 mins by spectrophotometric analysis relative to control. The data set is classed as physicochemical. The following applies: 4 h. For orientation: Loss of DPPH colour is used to gauge radical scavenging.
Data set [5] deals with Aldo-keto reductase family 1 member B1 (Rattus norvegicus, UniProt P07943). Nature of the data set: Inhibition of Wistar rat ALR2 using D,L-glyceraldehyde as substrate assessed as oxidation of NADPH preincubated for 10 mins followed by substrate addition measured for 4 mins by spectrophotometric analysis.
Data set [6] addresses Aldo-keto reductase family 1 member B1 (Rattus norvegicus) (UniProt P07943). Nature of the data set: Inhibition of Wistar rat ALR2 using D,L-glyceraldehyde as substrate assessed as oxidation of NADPH at 10 uM preincubated for 10 mins followed by substrate addition measured for 4 mins by spectrophotometric analysis relative to control.

For `Cc1c(C)c2c(c(C)c1O)CCC(C)(C(=O)O)O2` (stereo not drawn) [TROLOX], the inhibition at 10 µM in data set [1] was determined as 90.1%. In data set [2], the inhibition at 100 µM worked out at 71.3%. Also, the figures for the Activity in data set [3] and in data set [4] were 96.7% and 93.3%, respectively.
With `O=C(O)Cn1c(=O)c(Oc2cc(O)cc(O)c2)nc2cc(F)ccc21`, the inhibition at 100 µM in data set [2] was found to be 15.5%. Further, the Activity in data set [3] is given as 25.4%. In data set [5], the IC50 was determined as 0.13 µM.
Regarding `O=C(O)Cn1c(=O)c(Oc2cc(O)cc(O)c2)nc2cc(Cl)ccc21`, in data set [1], the inhibition at 10 µM is 8.1%. For the same molecule, in data set [2], the inhibition at 100 µM is 24.5%. The values for the Activity in data set [3] and in data set [4] were 56.5% and 34.5%, respectively. In addition, the IC50 in data set [5] came to 0.982 µM.
`O=C(O)Cn1c(=O)c(Oc2ccc(O)cc2)nc2ccc(Cl)cc21`: the inhibition at 10 µM in data set [1] was 10.1%. Moreover, in data set [2], the inhibition at 100 µM was 49.4%. Further, the figures for the Activity in data set [3] and in data set [4] were 84.8% and 47.3%, respectively. Also, the IC50 in data set [5] turned out to be 0.179 µM.
Turning to `O=C(O)Cn1c(=O)c(Oc2ccc(O)cc2)nc2cc(F)ccc21`, the inhibition at 100 µM in data set [2] came out at 14.3%. Besides, the Activity in data set [3] came out at 23.7%. In addition, the IC50 in data set [5] was 0.0196 µM.
Regarding `O=C(O)Cn1c(=O)c(Oc2cc(O)cc(O)c2)nc2ccc(Cl)cc21`, the inhibition at 10 µM in data set [1] was determined as 26.6%. The inhibition at 100 µM in data set [2] was 55.3%. The Activity stood at 91.3% in data set [3] and 83.7% in data set [4]. Further, the IC50 in data set [5] was determined as 0.566 µM.
`O=C(O)Cn1c(=O)c(Oc2ccc(O)cc2)nc2ccccc21`: the inhibition at 100 µM in data set [2] is 12.3%. In addition, the Activity in data set [3] is given as 21.3%. In data set [5], the IC50 came to 0.374 µM.
For the molecule `O=C(O)Cn1c(=O)c(Oc2cc(O)cc(O)c2)nc2ccccc21`, in data set [1], the inhibition at 10 µM came out at 5.7%. In addition, the inhibition at 100 µM in data set [2] was 34.5%. Also, the Activity was determined as 67.4% in data set [3] and 46.5% in data set [4]. Besides, the IC50 in data set [5] worked out at 0.94 µM.
In the case of `O=C(O)Cn1c(=O)c(Oc2cc(O)cc(O)c2)nc2ccc(F)cc21`, the inhibition at 10 µM in data set [1] was found to be 9.3%. In data set [6], the inhibition was found to be 34%. In addition, the inhibition at 100 µM in data set [2] was 20.3%. The Activity in data set [3] stood at 38.2%; in data set [4] it was 29.3%.
